Source: PubChem BioAssay (NCI)
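The compound was tested at five concentrations on cells cultured in 96-well plates, with a 48-hour exposure period. GI50 marks 50% less growth. TGI is the concentration that stops growth completely.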

How the values were obtained:
Assay in all cases: inhibition of tumour cell growth, NCI panel, 48 h
SNB-19 CNS = tested on: SNB-19 CNS
HS 578T breast = tested on: HS 578T breast
SR leukemia = tested on: SR leukemia
PC-3 prostate = tested on: PC-3 prostate
BT-549 breast = tested on: BT-549 breast
KM12 colon = tested on: KM12 colon
UO-31 renal = tested on: UO-31 renal
HCC-2998 colon = tested on: HCC-2998 colon
SF-268 CNS = tested on: SF-268 CNS
SF-295 CNS = tested on: SF-295 CNS
COLO 205 colon = tested on: COLO 205 colon
T-47D breast = tested on: T-47D breast
NCI-H23 lung = tested on: NCI-H23 lung
HCT-15 colon = tested on: HCT-15 colon
MALME-3M melanoma = tested on: MALME-3M melanoma
RPMI-8226 leukemia = tested on: RPMI-8226 leukemia
IGROV1 ovarian = tested on: IGROV1 ovarian
A498 renal = tested on: A498 renal
NCI-H522 lung = tested on: NCI-H522 lung
TK-10 renal = tested on: TK-10 renal
MDA-MB-435 = tested on: MDA-MB-435
MCF7 breast = tested on: MCF7 breast
K-562 leukemia = tested on: K-562 leukemia
MOLT-4 leukemia = tested on: MOLT-4 leukemia
A549 NSCLC = tested on: A549 NSCLC
OVCAR-5 ovarian = tested on: OVCAR-5 ovarian
HOP-92 NSCLC = tested on: HOP-92 NSCLC
U251 CNS = tested on: U251 CNS
OVCAR-3 ovarian = tested on: OVCAR-3 ovarian
M14 melanoma = tested on: M14 melanoma
SK-MEL-28 melanoma = tested on: SK-MEL-28 melanoma
SNB-75 CNS = tested on: SNB-75 CNS
HT29 colon = tested on: HT29 colon
NCI-H226 lung = tested on: NCI-H226 lung
MDA-MB-231 breast = tested on: MDA-MB-231 breast
HL-60(TB) leukemia = tested on: HL-60(TB) leukemia
UACC-62 melanoma = tested on: UACC-62 melanoma
RXF 393 renal = tested on: RXF 393 renal
UACC-257 melanoma = tested on: UACC-257 melanoma
OVCAR-8 ovarian = tested on: OVCAR-8 ovarian
SK-MEL-2 melanoma = tested on: SK-MEL-2 melanoma
NCI-H460 lung = tested on: NCI-H460 lung
SK-OV-3 ovarian = tested on: SK-OV-3 ovarian
SW-620 colon = tested on: SW-620 colon
LOX IMVI melanoma = tested on: LOX IMVI melanoma
DU-145 prostate = tested on: DU-145 prostate
786-0 renal = tested on: 786-0 renal
EKVX NSCLC = tested on: EKVX NSCLC
SF-539 CNS = tested on: SF-539 CNS
ACHN renal = tested on: ACHN renal
HCT-116 colon = tested on: HCT-116 colon
NCI/ADR-RES ovarian = tested on: NCI/ADR-RES ovarian
SN12C renal = tested on: SN12C renal
HOP-62 NSCLC = tested on: HOP-62 NSCLC
SK-MEL-5 melanoma = tested on: SK-MEL-5 melanoma
OVCAR-4 ovarian = tested on: OVCAR-4 ovarian
CCRF-CEM leukemia = tested on: CCRF-CEM leukemia

SMILES: O=c1cc(N2CCOCC2)oc2c(-c3ccc4c(c3)OCCO4)csc12
- GI50 (SNB-19 CNS): 1180 nM
- TGI (SNB-19 CNS): 42800 nM
- GI50 (HS 578T breast): 221 nM
- TGI (HS 578T breast): 1400 nM
- GI50 (SR leukemia): 519 nM
- TGI (SR leukemia): 8570 nM
- GI50 (PC-3 prostate): 319 nM
- TGI (PC-3 prostate): > 80200 nM
- GI50 (BT-549 breast): 332 nM
- TGI (BT-549 breast): 4100 nM
- GI50 (KM12 colon): 1080 nM
- TGI (KM12 colon): > 38600 nM
- GI50 (UO-31 renal): 167 nM
- TGI (UO-31 renal): 1790 nM
- GI50 (HCC-2998 colon): 746 nM
- TGI (HCC-2998 colon): 8790 nM
- GI50 (SF-268 CNS): 687 nM
- TGI (SF-268 CNS): 21600 nM
- GI50 (SF-295 CNS): 307 nM
- TGI (SF-295 CNS): 3670 nM
- GI50 (COLO 205 colon): 417 nM
- TGI (COLO 205 colon): 2740 nM
- GI50 (T-47D breast): 167 nM
- TGI (T-47D breast): 643 nM
- GI50 (NCI-H23 lung): 760 nM
- TGI (NCI-H23 lung): 17300 nM
- GI50 (HCT-15 colon): 471 nM
- TGI (HCT-15 colon): > 40800 nM
- GI50 (MALME-3M melanoma): 224 nM
- TGI (MALME-3M melanoma): 1800 nM
- GI50 (RPMI-8226 leukemia): 439 nM
- TGI (RPMI-8226 leukemia): 4660 nM
- GI50 (IGROV1 ovarian): 262 nM
- TGI (IGROV1 ovarian): 1470 nM
- GI50 (A498 renal): 102 nM
- TGI (A498 renal): 662 nM
- GI50 (NCI-H522 lung): 282 nM
- TGI (NCI-H522 lung): 4160 nM
- GI50 (TK-10 renal): 257 nM
- TGI (TK-10 renal): 1290 nM
- GI50 (MDA-MB-435): 428 nM
- TGI (MDA-MB-435): 33600 nM
- GI50 (MCF7 breast): 284 nM
- TGI (MCF7 breast): 11300 nM
- GI50 (K-562 leukemia): 1170 nM
- TGI (K-562 leukemia): > 100000 nM
- GI50 (MOLT-4 leukemia): 628 nM
- TGI (MOLT-4 leukemia): 6240 nM
- GI50 (A549 NSCLC): 583 nM
- TGI (A549 NSCLC): 10500 nM
- GI50 (OVCAR-5 ovarian): 445 nM
- TGI (OVCAR-5 ovarian): > 62900 nM
- GI50 (HOP-92 NSCLC): 214 nM
- TGI (HOP-92 NSCLC): 2560 nM
- GI50 (U251 CNS): 1080 nM
- TGI (U251 CNS): 35000 nM
- GI50 (OVCAR-3 ovarian): 526 nM
- TGI (OVCAR-3 ovarian): 11300 nM
- GI50 (M14 melanoma): 451 nM
- TGI (M14 melanoma): 4860 nM
- GI50 (SK-MEL-28 melanoma): 579 nM
- TGI (SK-MEL-28 melanoma): 11400 nM
- GI50 (SNB-75 CNS): 127 nM
- TGI (SNB-75 CNS): 765 nM
- GI50 (HT29 colon): 379 nM
- TGI (HT29 colon): 12200 nM
- GI50 (NCI-H226 lung): 492 nM
- TGI (NCI-H226 lung): 11700 nM
- GI50 (MDA-MB-231 breast): 382 nM
- TGI (MDA-MB-231 breast): 14500 nM
- GI50 (HL-60(TB) leukemia): 298 nM
- TGI (HL-60(TB) leukemia): 2890 nM
- GI50 (UACC-62 melanoma): 325 nM
- TGI (UACC-62 melanoma): 2060 nM
- GI50 (RXF 393 renal): 405 nM
- TGI (RXF 393 renal): 3480 nM
- GI50 (UACC-257 melanoma): 608 nM
- TGI (UACC-257 melanoma): 7950 nM
- GI50 (OVCAR-8 ovarian): 498 nM
- TGI (OVCAR-8 ovarian): 12000 nM
- GI50 (SK-MEL-2 melanoma): 798 nM
- TGI (SK-MEL-2 melanoma): 5030 nM
- GI50 (NCI-H460 lung): 658 nM
- TGI (NCI-H460 lung): 14200 nM
- GI50 (SK-OV-3 ovarian): 272 nM
- TGI (SK-OV-3 ovarian): 1200 nM
- GI50 (SW-620 colon): 978 nM
- TGI (SW-620 colon): 16300 nM
- GI50 (LOX IMVI melanoma): 425 nM
- TGI (LOX IMVI melanoma): 2820 nM
- GI50 (DU-145 prostate): 730 nM
- TGI (DU-145 prostate): > 100000 nM
- GI50 (786-0 renal): 352 nM
- TGI (786-0 renal): 6310 nM
- GI50 (EKVX NSCLC): 333 nM
- TGI (EKVX NSCLC): 6150 nM
- GI50 (SF-539 CNS): 425 nM
- TGI (SF-539 CNS): 3610 nM
- GI50 (ACHN renal): 339 nM
- TGI (ACHN renal): 10700 nM
- GI50 (HCT-116 colon): 775 nM
- TGI (HCT-116 colon): 11100 nM
- GI50 (NCI/ADR-RES ovarian): 590 nM
- TGI (NCI/ADR-RES ovarian): 19700 nM
- GI50 (SN12C renal): 484 nM
- TGI (SN12C renal): > 100000 nM
- GI50 (HOP-62 NSCLC): 302 nM
- TGI (HOP-62 NSCLC): 5330 nM
- GI50 (SK-MEL-5 melanoma): 590 nM
- TGI (SK-MEL-5 melanoma): 2160 nM
- GI50 (OVCAR-4 ovarian): 413 nM
- TGI (OVCAR-4 ovarian): > 61900 nM
- GI50 (CCRF-CEM leukemia): 1490 nM
- TGI (CCRF-CEM leukemia): > 61900 nM
